Results taken from patent publication US8178668B2, “2-aminopyridine kinase inhibitors” (OSI Pharmaceuticals, LLC, priority 2008, dated 2012).
Structures can show the parent of a compound that is named as a salt. Each block holds one molecule with its values, some of them ahead of it.

What was measured:
RON (human) = RON (human) (Homo sapiens, UniProt Q04912); experiment: RON kinase AlphaScreen assay (Km of ATP); assay type: biochemical; conditions: ATP at Km; at least duplicate experiments
Description: (§1) Person skilled in the art will appreciate that a variety of assay formats may be used to determine the activity of the compounds of this invention. For example, AlphaScreen (Amplified Luminescent Proximity Homogeneous Assay) technology was used with the kinases described below. Assay ATP concentrations for individual kinases are included in the text.
RON (human)—Km of ATP: RON assay is performed in a 384 well assay containing 200 ng/μL biotinylated poly(Glu,Tyr), 0.334 mM vanadate, desired concentration of ATP optimized for the enzyme in assay buffer (50 mM HEPES (pH=7.4), 12.5 mM MgCl2 and 1% glycerol). Desired compound is added in a final concentration of 1% DMSO with control being vehicle of DMSO alone. RON is diluted to the optimized (on a lot-by-lot basis) concentration in an enzyme diluent buffer (50 mM HEPES pH=7.4, 12.5 mM MgCl2 and 1% glycerol, 0.03% Brij35, 0.3 mM EGTA, lmM DTT, and 0.003% BSA). Enzyme is added to initiate the reaction and incubated for 30 min at RT. In subdued light, appropriate amount of PT66 donor and acceptor beads (diluted 1:260 from manufacturer's provision in a 25 mM Tris HCl (pH=7.5), 200 mM NaCl, 100 mM EDTA, 0.3% BSA buffer) are added to the wells. The plates, incubated for 1 h, are read on an AlphaQuest plate reader.

MET (human) = MET (human) (Homo sapiens, UniProt P08581); experiment: MET kinase AlphaScreen assay (Km of ATP); assay type: biochemical; conditions: ATP at Km; at least duplicate experiments
MET (human), sequence (P08581 25-1390): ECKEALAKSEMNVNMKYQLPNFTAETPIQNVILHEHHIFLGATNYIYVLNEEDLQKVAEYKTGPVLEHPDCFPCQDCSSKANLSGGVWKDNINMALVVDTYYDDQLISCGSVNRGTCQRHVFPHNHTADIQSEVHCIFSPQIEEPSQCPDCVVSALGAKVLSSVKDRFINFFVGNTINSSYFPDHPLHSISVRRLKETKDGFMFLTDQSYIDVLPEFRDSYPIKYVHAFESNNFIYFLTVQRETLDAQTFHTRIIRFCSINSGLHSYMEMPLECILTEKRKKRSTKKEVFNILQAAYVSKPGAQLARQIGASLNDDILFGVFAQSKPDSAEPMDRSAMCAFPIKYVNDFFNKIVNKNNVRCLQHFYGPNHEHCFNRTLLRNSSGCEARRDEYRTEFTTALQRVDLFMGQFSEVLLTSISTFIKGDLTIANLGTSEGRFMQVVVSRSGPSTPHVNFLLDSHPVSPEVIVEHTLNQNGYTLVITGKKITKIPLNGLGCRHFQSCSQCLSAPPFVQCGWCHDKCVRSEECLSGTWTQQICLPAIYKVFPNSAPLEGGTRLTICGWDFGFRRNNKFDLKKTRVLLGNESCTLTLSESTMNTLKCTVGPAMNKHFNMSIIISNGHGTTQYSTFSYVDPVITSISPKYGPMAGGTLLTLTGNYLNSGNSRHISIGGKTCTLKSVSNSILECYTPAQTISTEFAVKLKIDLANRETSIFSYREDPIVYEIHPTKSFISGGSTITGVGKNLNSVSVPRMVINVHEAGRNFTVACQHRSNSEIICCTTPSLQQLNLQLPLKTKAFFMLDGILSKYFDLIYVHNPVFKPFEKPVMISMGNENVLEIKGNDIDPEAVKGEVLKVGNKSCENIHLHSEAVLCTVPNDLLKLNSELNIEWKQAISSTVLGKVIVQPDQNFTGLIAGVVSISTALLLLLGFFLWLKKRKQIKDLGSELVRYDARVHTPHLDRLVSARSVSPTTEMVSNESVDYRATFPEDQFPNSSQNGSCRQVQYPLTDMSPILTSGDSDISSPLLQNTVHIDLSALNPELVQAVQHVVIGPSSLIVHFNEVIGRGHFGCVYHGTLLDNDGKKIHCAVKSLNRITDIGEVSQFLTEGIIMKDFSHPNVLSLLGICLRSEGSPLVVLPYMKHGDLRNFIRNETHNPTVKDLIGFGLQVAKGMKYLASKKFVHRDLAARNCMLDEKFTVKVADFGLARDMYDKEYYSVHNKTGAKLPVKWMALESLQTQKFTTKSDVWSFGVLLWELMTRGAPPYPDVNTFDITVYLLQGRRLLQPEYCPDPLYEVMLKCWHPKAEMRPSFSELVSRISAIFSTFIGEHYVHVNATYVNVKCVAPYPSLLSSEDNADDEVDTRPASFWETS
Description: as §1
MET (human)—Km of ATP: MET assay is performed in a 384 well assay containing 200 ng/μL biotinylated poly(Glu,Tyr), 0.334 mM vanadate, desired concentration of ATP optimized for the enzyme in assay buffer (50 mM HEPES (pH=7.4), 5 mM MgCl2, 5 mM MnCl2, and 1% glycerol). Desired compound is added in a final concentration of 1% DMSO with control being vehicle of DMSO alone. MET is diluted to the optimized concentration (optimized on a lot-by-lot basis) in an enzyme diluent buffer (50 mM Tris pH=7.4, 1% glycerol, 0.03% Brij35, 0.24 mM EGTA, 1 mM DTT, and 0.003% BSA). Enzyme is added to initiate the reaction and incubated for 60 min at RT. In subdued light, appropriate amount of PT66 donor and acceptor beads (diluted 1:260 from manufacturer's provision in a 25 mM Tris HCl (pH=7.5), 400 mM NaCl, 100 mM EDTA, 0.3% BSA buffer) are added to the wells. The plates, incubated for 1 h, are read on an AlphaQuest plate reader

RON (human), sequence (Q04912 25-1400): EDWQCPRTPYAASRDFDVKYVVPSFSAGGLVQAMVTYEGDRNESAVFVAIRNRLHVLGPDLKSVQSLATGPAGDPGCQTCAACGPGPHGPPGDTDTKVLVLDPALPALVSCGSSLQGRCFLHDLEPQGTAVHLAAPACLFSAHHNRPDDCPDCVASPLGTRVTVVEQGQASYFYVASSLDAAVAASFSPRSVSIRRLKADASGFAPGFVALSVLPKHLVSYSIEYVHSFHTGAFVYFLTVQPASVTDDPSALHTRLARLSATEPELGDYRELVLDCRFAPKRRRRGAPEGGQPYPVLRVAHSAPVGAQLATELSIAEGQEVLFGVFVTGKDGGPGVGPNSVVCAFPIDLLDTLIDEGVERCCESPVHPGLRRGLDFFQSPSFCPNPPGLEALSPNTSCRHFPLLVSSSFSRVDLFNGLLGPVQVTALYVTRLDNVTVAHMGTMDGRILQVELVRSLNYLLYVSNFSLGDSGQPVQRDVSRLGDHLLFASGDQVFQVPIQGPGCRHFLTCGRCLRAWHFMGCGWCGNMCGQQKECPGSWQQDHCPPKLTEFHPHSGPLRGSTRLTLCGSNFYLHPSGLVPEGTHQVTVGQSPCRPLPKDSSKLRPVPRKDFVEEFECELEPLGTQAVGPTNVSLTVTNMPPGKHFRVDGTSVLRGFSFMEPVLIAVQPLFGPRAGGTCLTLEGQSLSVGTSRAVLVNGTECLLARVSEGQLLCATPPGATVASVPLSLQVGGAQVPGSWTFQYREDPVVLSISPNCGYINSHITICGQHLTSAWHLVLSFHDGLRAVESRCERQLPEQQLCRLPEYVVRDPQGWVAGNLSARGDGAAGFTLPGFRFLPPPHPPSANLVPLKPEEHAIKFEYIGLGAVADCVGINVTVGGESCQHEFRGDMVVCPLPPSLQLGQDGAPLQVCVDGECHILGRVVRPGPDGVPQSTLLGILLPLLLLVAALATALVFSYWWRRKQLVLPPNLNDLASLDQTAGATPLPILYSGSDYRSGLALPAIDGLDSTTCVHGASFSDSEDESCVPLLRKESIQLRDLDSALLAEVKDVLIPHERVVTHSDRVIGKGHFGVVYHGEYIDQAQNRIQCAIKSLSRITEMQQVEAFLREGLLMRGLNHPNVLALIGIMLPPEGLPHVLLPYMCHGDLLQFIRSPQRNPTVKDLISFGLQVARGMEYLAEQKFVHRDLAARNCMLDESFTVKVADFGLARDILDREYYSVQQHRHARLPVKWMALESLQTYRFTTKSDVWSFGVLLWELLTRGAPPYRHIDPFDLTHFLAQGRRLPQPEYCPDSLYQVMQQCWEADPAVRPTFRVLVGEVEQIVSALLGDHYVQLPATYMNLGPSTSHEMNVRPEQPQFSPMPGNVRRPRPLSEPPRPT

Compound: Cc1nc(-c2cc(-c3cnn(C4CCNCC4)c3)cnc2N)cc2ccccc12 [Example 1, 3-(1-Methylisoquinolin-3-yl)-5-(1-piperidin-4-yl-1H-pyrazol-4-yl)-pyridin-2-ylamine trihydrochloride]
IC50 (RON (human)): 1000 to 20000 nM
IC50 (MET (human)): 1000 to 20000 nM

Compound: Cc1c(-c2cc(-c3cnn(C4CCNCC4)c3)cnc2N)ncc2ccccc12 [Example 2, 3-(4-Methylisoquinolin-3-yl)-5-(1-piperidin-4-yl-1H-pyrazol-4-yl)-pyridin-2-ylamine trihydrochloride]
IC50 (RON (human)): > 20000 nM
IC50 (MET (human)): 1000 to 20000 nM

Compound: Nc1ncc(-c2cnn(C3CCNCC3)c2)cc1-c1cc2cccc(Cl)c2cn1 [Example 3, 3-(8-Chloroisoquinolin-3-yl)-5-(1-piperidin-4-yl-1H-pyrazol-4-yl)-pyridin-2-ylamine trihydrochloride]
IC50 (RON (human)): ≤ 100 nM
IC50 (MET (human)): ≤ 100 nM

Compound: Cc1ccc2cnc(-c3cc(-c4cnn(C5CCNCC5)c4)cnc3N)cc2c1 [Example 4, 3-(6-Methylisoquinolin-3-yl)-5-(1-piperidin-4-yl-1H-pyrazol-4-yl)-pyridin-2-ylamine trihydrochloride]
IC50 (RON (human)): 1000 to 20000 nM
IC50 (MET (human)): 100 to 1000 nM

Compound: Cc1cccc2cc(-c3cc(-c4cnn(C5CCNCC5)c4)cnc3N)ncc12 [Example 5, 3-(8-Methylisoquinolin-3-yl)-5-(1-piperidin-4-yl-1H-pyrazol-4-yl)-pyridin-2-ylamine trihydrochloride]
IC50 (RON (human)): 100 to 1000 nM
IC50 (MET (human)): 100 to 1000 nM

Compound: Cc1ccc(F)c2cnc(-c3cc(-c4cnn(C5CCNCC5)c4)cnc3N)cc12 [Example 6, 3-(8-Fluoro-5-methylisoquinolin-3-yl)-5-(1-piperidin-4-yl-1H-pyrazol-4-yl)-pyridin-2-ylamine trihydrochloride]
IC50 (RON (human)): 100 to 1000 nM
IC50 (MET (human)): 100 to 1000 nM

Compound: Nc1ncc(-c2cnn(C3CCNCC3)c2)cc1-c1cc2c(Br)ccc(F)c2cn1 [Example 7, 3-(5-Bromo-8-fluoroisoquinolin-3-yl)-5-(1-piperidin-4-yl-1H-pyrazol-4-yl)-pyridin-2-ylamine trihydrochloride]
IC50 (RON (human)): 100 to 1000 nM
IC50 (MET (human)): ≤ 100 nM

Compound: Nc1ncc(-c2cnn(C3CCNCC3)c2)cc1-c1ncc2ccccc2c1F [Example 8, 3-(4-Fluoroisoquinolin-3-yl)-5-(1-piperidin-4-yl-1H-pyrazol-4-yl)-pyridin-2-ylamine trihydrochloride]
IC50 (RON (human)): 1000 to 20000 nM
IC50 (MET (human)): 1000 to 20000 nM

Compound: Nc1ncc(-c2cnn(C3CCNCC3)c2)cc1-c1cc2c(Cl)ccc(Cl)c2cn1 [Example 9, 3-(5,8-Dichloroisoquinolin-3-yl)-5-(1-piperidin-4-yl-1H-pyrazol-4-yl)-pyridin-2-ylamine trihydrochloride]
IC50 (RON (human)): 100 to 1000 nM
IC50 (MET (human)): ≤ 100 nM

Compound: Nc1ncc(-c2cnn(C3CCNCC3)c2)cc1-c1cc2c(F)ccc(F)c2cn1 [Example 10, 3-(5,8-Difluoroisoquinolin-3-yl)-5-(1-piperidin-4-yl-1H-pyrazol-4-yl)-pyridin-2-ylamine trihydrochloride]
IC50 (RON (human)): 1000 to 20000 nM
IC50 (MET (human)): 100 to 1000 nM

Compound: Nc1ncc(-c2cnn(C3CCNCC3)c2)cc1-c1cc2c(Cl)ccc(F)c2cn1 [Example 11, 3-(5-Chloro-8-fluoroisoquinolin-3-yl)-5-(1-piperidin-4-yl-1H-pyrazol-4-yl)-pyridin-2-ylamine trihydrochloride]
IC50 (RON (human)): 100 to 1000 nM
IC50 (MET (human)): ≤ 100 nM

Compound: COc1ccc(Cl)c2cc(-c3cc(-c4cnn(C5CCNCC5)c4)cnc3N)ncc12 [Example 12, 4-{4-[6-Amino-5-(5-chloro-8-methoxyisoquinolin-3-yl)-pyridin-3-yl]-pyrazol-1-yl}-piperidine trihydrochloride]
IC50 (RON (human)): 1000 to 20000 nM
IC50 (MET (human)): 100 to 1000 nM

Compound: Nc1ncc(-c2cnn(C3CCNCC3)c2)cc1-c1cc2ccccc2cn1 [Example 13, 3-Isoquinolin-3-yl-5-(1-piperidin-4-yl-1H-pyrazol-4-yl)-pyridin-2-ylamine trihydrochloride]
IC50 (RON (human)): 1000 to 20000 nM
IC50 (MET (human)): 100 to 1000 nM

Compound: Nc1ncc(-c2cnn(C3CCNCC3)c2)cc1-c1cc2ccc(OC(F)(F)F)cc2cn1 [Example 14, 5-(1-Piperidin-4-yl-1H-pyrazol-4-yl)-3-(7-trifluoromethoxy-isoquinolin-3-yl)-pyridin-2-ylamine trihydrochloride]
IC50 (RON (human)): 1000 to 20000 nM
IC50 (MET (human)): 1000 to 20000 nM

Compound: Nc1ncc(-c2cnn(C3CCNCC3)c2)cc1-c1cc2c(Cl)c(F)cc(F)c2cn1 [Example 15, 3-(5-Chloro-6,8-difluoroisoquinolin-3-yl)-5-(1-piperidin-4-yl-1H-pyrazol-4-yl)-pyridin-2-ylamine trihydrochloride salt]
IC50 (RON (human)): 100 to 1000 nM
IC50 (MET (human)): ≤ 100 nM

Compound: Nc1ncc(-c2cnn(C3CCNCC3)c2)cc1-c1cc2cc(C(F)(F)F)ccc2cn1 [Example 16, 5-(1-Piperidin-4-yl-1H-pyrazol-4-yl)-3-(6-trifluoromethylisoquinolin-3-yl)-pyridin-2-ylamine trihydrochloride salt]
IC50 (RON (human)): 100 to 1000 nM
IC50 (MET (human)): 100 to 1000 nM

Now from value to molecule:

IC50 (RON (human)): 100 to 1000 nM
IC50 (MET (human)): ≤ 100 nM
Compound: Nc1ncc(-c2cnn([C@@H]3CNC(CO)C3)c2)cc1-c1nc2ccccc2s1 (mixture of isomers) [Example 180, {(S)-4-[4-(6-Amino-5-benzothiazol-2-ylpyridin-3-yl)-pyrazol-1-yl]-pyrrolidin-2-yl}-methanol]

IC50 (RON (human)): 100 to 1000 nM
IC50 (MET (human)): 100 to 1000 nM
Compound: Nc1ncc(-c2cnn(C3CCNCC3)c2)cc1-c1cc2ccc(C(F)(F)F)cc2cn1 [Example 17, 5-(1-Piperidin-4-yl-1H-pyrazol-4-yl)-3-(7-trifluoromethylisoquinolin-3-yl)-pyridin-2-ylamine tri-hydrochloride salt]

IC50 (RON (human)): 100 to 1000 nM
IC50 (MET (human)): 100 to 1000 nM
Compound: Nc1ncc(-c2cnn(C3CCNCC3)c2)cc1-c1cc2c(C(F)(F)F)cccc2cn1 [Example 18, 5-(1-Piperidin-4-yl-1H-pyrazol-4-yl)-3-(5-trifluoromethylisoquinolin-3-yl)-pyridin-2-ylamine trihydrochloride salt]

IC50 (RON (human)): 100 to 1000 nM
IC50 (MET (human)): 100 to 1000 nM
Compound: Nc1ncc(-c2cnn(C3CCNCC3)c2)cc1-c1cc2cccc(C(F)(F)F)c2cn1 [Example 19, 5-(1-Piperidin-4-yl-1H-pyrazol-4-yl)-3-(8-trifluoromethylisoquinolin-3-yl)-pyridin-2-ylamine trihydrochloride salt]

IC50 (RON (human)): 100 to 1000 nM
IC50 (MET (human)): 100 to 1000 nM
Compound: Cc1ccc(C)c2cc(-c3cc(-c4cnn(C5CCNCC5)c4)cnc3N)ncc12 [Example 20, 3-(5,8-Dimethylisoquinolin-3-yl)-5-(1-piperidin-4-yl-1H-pyrazol-4-yl)-pyridin-2-ylamine trihydrochloride salt]

IC50 (RON (human)): 1000 to 20000 nM
IC50 (MET (human)): 100 to 1000 nM
Compound: Nc1ncc(-c2cnn(C3CCNCC3)c2)cc1-c1cc2ccc(Br)cc2cn1 [Example 21, 3-(7-Bromoisoquinolin-3-yl)-5-(1-piperidin-4-yl-1H-pyrazol-4-yl)-pyridin-2-ylamine trihydrochloride salt]

IC50 (RON (human)): 1000 to 20000 nM
IC50 (MET (human)): 100 to 1000 nM
Compound: Nc1ncc(-c2cnn(C3CCNCC3)c2)cc1-c1cc2c(Br)cccc2cn1 [Example 22, 3-(5-Bromoisoquinolin-3-yl)-5-(1-piperidin-4-yl-1H-pyrazol-4-yl)-pyridin-2-ylamine trihydrochloride salt]

IC50 (RON (human)): 100 to 1000 nM
IC50 (MET (human)): 100 to 1000 nM
Compound: Nc1ncc(-c2cnn(C3CCNCC3)c2)cc1-c1cc2cc(Br)ccc2cn1 [Example 23, 3-(6-Bromoisoquinolin-3-yl)-5-(1-piperidin-4-yl-1H-pyrazol-4-yl)-pyridin-2-ylamine trihydrochloride salt]

IC50 (RON (human)): 100 to 1000 nM
IC50 (MET (human)): 100 to 1000 nM
Compound: Nc1ncc(-c2cnn(C3CCNCC3)c2)cc1-c1cc2cccc(Br)c2cn1 [Example 24, 3-(8-Bromoisoquinolin-3-yl)-5-(1-piperidin-4-yl-1H-pyrazol-4-yl)-pyridin-2-ylamine trihydrochloride salt]

IC50 (RON (human)): 100 to 1000 nM
IC50 (MET (human)): 100 to 1000 nM
Compound: Nc1ncc(-c2cnn(C3CCNCC3)c2)cc1-c1cc2cc(-c3ccccc3)ccc2cn1 [Example 25, 3-(6-Phenylisoquinolin-3-yl)-5-(1-piperidin-4-yl-1H-pyrazol-4-yl)-pyridin-2-ylamine tri-hydrochloride salt]

IC50 (RON (human)): 100 to 1000 nM
IC50 (MET (human)): 100 to 1000 nM
Compound: Nc1ncc(-c2cnn(C3CCNCC3)c2)cc1-c1cc2ccc(-c3ccccc3)cc2cn1 [Example 26, 3-(7-Phenylisoquinolin-3-yl)-5-(1-piperidin-4-yl-1H-pyrazol-4-yl)-pyridin-2-ylamine tri-hydrochloride salt]
